Data on 30 compounds can be found in patent publication US11242344B2, “(4-hydroxypyrrolidin-2-yl)-heterocyclic compounds and methods of use thereof” (Genentech, Inc., priority 2017, dated 2022).

Where only a bound is given, the exact number is not on record here.

The target in assay [1] is VHL co-expressed with Elongins B and C (Homo sapiens (Human), UniProt P40337). As to the kind of experiment: Surface Plasmon Resonance Assay. The assay is classed as binding. The settings on record: SPR measured VHL affinity; geometric mean where more than one measurement. On the procedure: Using a Biacore T200, […] tagged VHL co-expressed with Elongins B and C were immobilized to a Biacore SA chip in running buffer without DMSO. Compounds were tested individually at varying concentrations in running buffer (50 mM HEPES pH 7.2, 150 mM NaCl, 0.5 mM TCEP, 0.001% Tween 20, 0.2% PEG3350, 2% DMSO) at 20° C. Sensorgrams were run in order from low to high concentration using a flow rate of 80 μL/min. Association and disassociation times were varied depending on the estimated potency of the compound tested. […] Galdeano et al, J. Med. Chem. 2014, 57, 8657-8663, herein incorporated by reference) which retained greater than 75% of the activity over the course of the run. Analysis of the binding curves and determination of the kinetic parameters were done using evaluation software (Version 2.0, Biacore).
(In general: Surface plasmon resonance follows binding to a sensor surface in real time, without labels.)

Another assay deals with VHL Elongin B/C complex (Homo sapiens (Human), UniProt P40337). Nature of the assay: Fluorescence Polarization (FP) VHL Binding Assay. The note with it: for IC50: VHL binding, FP assay, geometric mean where more than one measurement. On the procedure:
The binding of test compounds to the VHL Elongin B/C complex was measured using a fluorescence polarization tracer competition assay. The VHL/Elongin B/C protein complex used in the assay was generated as follows. The coding region for amino acids E55-D213 of human VHL with N-terminal His6 tag with a TEV-protease cleavage site was co-expressed with Elongin B (residues M1-Q118) and Elongin C (Residues M17-C112) in E. coli. […] The purified VHL/Elongin B/C complex was dialyzed into formulation buffer: 20 mM Bis-Tris pH7.0, 150 mM NaCl, 1 mM DTT. A VHL fluorescence polarization probe (prepared in Example 91), consisted of a VHL ligand coupled to carboxytetramethylrhodamine (TAMRA); […] Compounds were prepared as a serial dilution in DMSO at a concentration 25-fold higher than the final desired concentration and acoustically dispensed (400 nl) into a ProxiPlate-384 Plus F, Black 384-shallow well Microplate (Part Number 6008260). DMSO was dispensed into wells designated for “VHL control” (without compound) wells. The “Assay Buffer” consisted of 50 mM Tris pH 8.0, 120 mM NaCl, 0.005% Nonidet P-40, and 1% DMSO (v/v). Assay Buffer containing […] VHL Elongin B/C complex was prepared and 5 μl dispensed using a BioRapTR (Beckman Coulter) into each well of the assay plate. Assay Buffer was also dispensed into “no VHL control” wells using the same method. A “pre-assay” fluorescence measurement was made using an Infinite® M1000 (Tecan) plate reader (Excitation 530 nm, Emission 574 nm, Bandwidth 10 nm). Assay Buffer containing 3.34 nM of the VHL FP probe was prepared in Assay Buffer and 5 μl dispensed into each well of the assay plate using a BioRapTR (Beckman Coulter). The final VHL/Elongin B/C protein concentration is 2.64 nM and the final probe concentration is 1.67 nM. Assay plates were briefly centrifuged and incubated for 1 hour at room temperature. “Post-assay” fluorescence polarization measurements were made as described for the “pre-assay” fluorescence measurement. Fluorescence polarization was calculated for each sample; taking into account the “pre-assay” fluorescence measurements and subtracting the fluorescence signal of the compound/VHL only (“pre-assay”) measurements from the “post-assay” fluorescence polarization measurements, for each plane of polarization. The data were analyzed using Genedata Screener software and normalized to the “no VHL control” and “VHL control” (without compound). IC50 values were calculated using a four parameter curve fit (Robust method).
(Fluorescence polarisation rises when a labelled molecule tumbles more slowly, as on binding a larger partner.)

Chain of VHL Elongin B/C complex (P40337 whole entry, looked up, the tested form may be a part): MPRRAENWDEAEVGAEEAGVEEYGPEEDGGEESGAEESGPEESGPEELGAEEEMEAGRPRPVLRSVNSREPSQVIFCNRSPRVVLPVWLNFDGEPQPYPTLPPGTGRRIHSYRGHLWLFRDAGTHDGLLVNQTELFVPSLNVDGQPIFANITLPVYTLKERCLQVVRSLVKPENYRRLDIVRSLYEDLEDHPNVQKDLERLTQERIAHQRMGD
Chain of VHL Elongin B/C complex (Q15370 whole entry partner, looked up, the tested form may be a part): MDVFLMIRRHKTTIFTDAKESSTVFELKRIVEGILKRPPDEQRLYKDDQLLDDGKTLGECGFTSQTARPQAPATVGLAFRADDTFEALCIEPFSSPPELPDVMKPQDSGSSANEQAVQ
Chain of VHL Elongin B/C complex (Q15369 whole entry partner, looked up, the tested form may be a part): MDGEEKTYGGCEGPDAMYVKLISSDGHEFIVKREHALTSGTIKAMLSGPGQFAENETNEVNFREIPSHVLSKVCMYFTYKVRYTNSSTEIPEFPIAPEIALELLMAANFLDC
Chain of VHL co-expressed with Elongins B and C (P40337 whole entry, looked up): as the sequence (P40337 whole entry, looked up, the tested form may be a part) above
Chain of VHL co-expressed with Elongins B and C (Q15370 whole entry partner, looked up): as the sequence (Q15370 whole entry partner, looked up, the tested form may be a part) above
Chain of VHL co-expressed with Elongins B and C (Q15369 whole entry partner, looked up): as the sequence (Q15369 whole entry partner, looked up, the tested form may be a part) above

What is called Kd is the equilibrium constant for the complex coming apart. A higher Kd goes with weaker binding. One may read the IC50 as the midpoint of a concentration-inhibition curve. Regarding `Cc1cc(C(C(=O)N2C[C@H](O)CC2C2=NC(=O)C(C)(c3ccc(Br)cc3)N2)C(C)C)on1` (single isomer, unassigned) [Example 103.2], in assay [1], the Kd was greater than 150 µM. For the same compound, at VHL Elongin B/C complex, the IC50 is greater than 400 µM.
In assay [1], `Cc1cc(C(C(=O)N2C[C@H](O)CC2C2=NC(=O)C(C)(c3ccc(Br)cc3)N2)C(C)C)on1` (single isomer, unassigned) [Example 103.4] had a Kd of 1.09 µM. Besides, the 50% inhibitory concentration (IC50) at VHL Elongin B/C complex was 6.73 µM.
With `Cc1ncsc1-c1ccc([C@]2(C)NC(C3C[C@@H](O)CN3C(=O)C(c3cc(O)no3)C(C)C)=NC2=O)cc1` (single isomer, unassigned) [Example 116.3], the Kd in assay [1] was 150 µM.
`Cc1cc(C(C(=O)N2C[C@H](O)CC2C2=NC(=O)C(C)(c3ccc(-c4cccc(=O)n4C)cc3)N2)C(C)C)on1` (single isomer, unassigned) [Example 108.4] showed a Kd in assay [1] greater than 0.3 µM. On VHL Elongin B/C complex, this compound returned an IC50 greater than 400 µM.
Consider `Cc1cc(C(C(=O)N2C[C@H](O)CC2C2=NC(=O)C(C)(c3ccc(-c4cccc(=O)n4C)cc3)N2)C(C)C)on1` (single isomer, unassigned) [Example 108.1], for which the dissociation constant (Kd) in assay [1] is 13.9 µM. The IC50 at VHL Elongin B/C complex was 57.5 µM.
`Cc1cc(C(C(=O)N2C[C@H](O)CC2C2=NC(=O)C(C)(c3ccc(-c4cccnc4C)cc3)N2)C(C)C)on1` (single isomer, unassigned) [Example 106.1] registered a Kd in assay [1] greater than 150 µM. In addition, the IC50 at VHL Elongin B/C complex was greater than 400 µM.
Consider `CC(=O)N[C@H](C(=O)N1C[C@H](O)CC1C1=NC(=O)C(C)(c2ccc(Br)cc2)N1)C(C)(C)C` (single isomer, unassigned) [Example 101.3], for which the affinity in assay [1], expressed as Kd, was 332 µM. Also, the IC50 at VHL Elongin B/C complex was greater than 200 µM.
For `Cc1cc(C(C(=O)N2C[C@H](O)CC2C2=NC(=O)C(C)(c3ccc(-c4scnc4C)cc3)N2)C(C)C)on1` (single isomer, unassigned) [Example 104.2], the Kd in assay [1] was greater than 150 µM. For the same compound, the 50% inhibitory concentration (IC50) at VHL Elongin B/C complex was greater than 400 µM.
Compound `Cc1cc(C(C(=O)N2C[C@H](O)CC2C2=NC(=O)C(C)(c3ccc(-c4cccc(=O)n4C)cc3)N2)C(C)C)on1` (single isomer, unassigned) [Example 108.3] gave a dissociation constant Kd in assay [1] greater than 0.3 µM. Moreover, the IC50 on VHL Elongin B/C complex was greater than 400 µM.
Take `Cc1ncsc1-c1ccc([C@]2(C)NC(C3C[C@@H](O)CN3C(=O)[C@@H]3CCCN3S(C)(=O)=O)=NC2=O)cc1` (single isomer, unassigned) [Example 112.2]: binding in assay [1] was put at a Kd of 150 µM.
In assay [1], `Cc1cc([C@@H](C(=O)N2C[C@H](O)C[C@H]2C2=NOC(C)(C)N2)C(C)C)on1` [Example 126.2, (S)-1-((2S,4R)-2-(5,5-dimethyl-4,5-dihydro-1,2,4-oxadiazol-3-yl)-4-hydroxypyrrolidin-1-yl)-3-methyl-2-(3-methylisoxazol-5-yl)butan-1-one] yielded a Kd of no less than 150 µM.
With `CC(=O)N[C@H](C(=O)N1C[C@H](O)CC1C1=NC(=O)C(C)(c2ccc(-c3scnc3C)cc2)N1)C(C)(C)C` (single isomer, unassigned) [Example 102.1], the equilibrium dissociation constant (Kd) in assay [1] was found to be 1.96 µM. The 50% inhibitory concentration (IC50) at VHL Elongin B/C complex stood at 6.17 µM.
`Cc1cc([C@@H](C(=O)N2C[C@H](O)C[C@H]2C2=NOC(C)(c3ccccc3)N2)C(C)C)on1` (single isomer, unassigned) [Example 128.1] registered a Kd in assay [1] of no less than 150 µM.
The compound `Cc1cc([C@@H](C(=O)N2C[C@H](O)C[C@H]2C2=NOC(c3ccc(Br)cc3)(C(F)(F)F)N2)C(C)C)on1` (single isomer, unassigned) [Example 133.2] returned a Kd in assay [1] of no less than 150 µM. This compound also registered an IC50 at VHL Elongin B/C complex of no less than 400 µM.
Compound `Cc1cc(C(C(=O)N2C[C@H](O)CC2C2=NC(=O)C(C)(c3ccc(Br)cc3)N2)C(C)C)on1` (single isomer, unassigned) [Example 103.3] registered a Kd in assay [1] greater than 150 µM. Further, at VHL Elongin B/C complex, the IC50 was found to be 292 µM.
On to `Cc1cc(C(C(=O)N2C[C@H](O)CC2C2=NC(=O)C(C)(c3ccc(-c4cccnc4C)cc3)N2)C(C)C)on1` (single isomer, unassigned) [Example 106.3], for which the Kd in assay [1] was greater than 150 µM. For the same compound, the IC50 at VHL Elongin B/C complex is greater than 400 µM.
The compound `CC(=O)N[C@H](C(=O)N1C[C@H](O)CC1C1=NC(=O)C(C)(c2ccc(-c3scnc3C)cc2)N1)C(C)(C)C` (single isomer, unassigned) [Example 102.2] had a dissociation constant Kd in assay [1] of 43.8 µM. The compound also registered an IC50 on VHL Elongin B/C complex of 93.1 µM.
Consider `Cc1cc(C(C(=O)N2C[C@H](O)CC2C2=NC(=O)C(C)(c3ccc(-c4cccnc4C)cc3)N2)C(C)C)on1` (single isomer, unassigned) [Example 106.4], for which the Kd in assay [1] amounted to 0.895 µM. This compound also had an IC50 on VHL Elongin B/C complex of 2.96 µM.
In turn, `Cc1cc(C(C(=O)N2C[C@H](O)CC2C2=NC(=O)C(C)(c3ccc(-c4cccnc4)cc3)N2)C(C)C)on1` (single isomer, unassigned) [Example 105.1] had a Kd in assay [1] of 241 µM. For the same compound, at VHL Elongin B/C complex, the IC50 stood at 375 µM.
On the same counts, the results for `Cc1cc(C(C(=O)N2C[C@H](O)CC2C2=NC(=O)C(C)(c3ccc(-c4scnc4C)cc3)N2)C(C)C)on1` (single isomer, unassigned) [Example 104.3] are 44.6 µM and 230 µM.
In assay [1], `CC(=O)N[C@H](C(=O)N1C[C@H](O)CC1C1=NC(=O)C(C)(c2ccc(Br)cc2)N1)C(C)(C)C` (single isomer, unassigned) [Example 101.2] registered an equilibrium dissociation constant (Kd) of 41.6 µM. For the same compound, the IC50 on VHL Elongin B/C complex was greater than 200 µM.
Take `Cc1ncsc1-c1ccc([C@]2(C)NC(C3C[C@@H](O)CN3C(=O)C(c3cc(O)no3)C(C)C)=NC2=O)cc1` (single isomer, unassigned) [Example 116.2]: in assay [1], binding was characterised by a dissociation constant (Kd) of 150 µM.
The compound `Cc1cc([C@@H](C(=O)N2C[C@H](O)C[C@H]2C2=NOC(C)(c3ccccc3)N2)C(C)C)on1` (single isomer, unassigned) [Example 128.2] showed a Kd in assay [1] of no less than 150 µM.
On the same count and under the same terms, as for `Cc1ncsc1-c1ccc([C@]2(C)NC(C3C[C@@H](O)CN3C(=O)[C@H]3CCCN3S(C)(=O)=O)=NC2=O)cc1` (single isomer, unassigned) [Example 120.2], the figure is no less than 150 µM; as for `Cc1ncsc1-c1ccc([C@]2(C)NC(C3C[C@@H](O)CN3C(=O)[C@H]3CCCN3S(C)(=O)=O)=NC2=O)cc1` (single isomer, unassigned) [Example 120.1], no less than 150 µM.
Turning to `Cc1cc(C(C(=O)N2C[C@H](O)CC2C2=NC(=O)C(C)(c3ccc(-c4scnc4C)cc3)N2)C(C)C)on1` (single isomer, unassigned) [Example 104.1], in assay [1], the Kd came to 35.9 µM. Besides, on VHL Elongin B/C complex, the IC50 is 203 µM.
In assay [1], `Cc1cc(C(C(=O)N2C[C@H](O)CC2C2=NC(=O)C(C)(c3ccc(Br)cc3)N2)C(C)C)on1` (single isomer, unassigned) [Example 103.1] returned a Kd greater than 150 µM. The compound also returned a half-inhibitory concentration (IC50) on VHL Elongin B/C complex greater than 400 µM.
In the case of `CC(=O)N1CCC[C@H]1C(=O)N1C[C@H](O)CC1C1=NC(=O)[C@](C)(c2ccc(-c3scnc3C)cc2)N1` (single isomer, unassigned) [Example 121.2], the Kd in assay [1] is no less than 150 µM.
In turn, `Cc1cc(C(C(=O)N2C[C@H](O)CC2C2=NC(=O)C(C)(C)N2)C(C)C)on1` (single isomer, unassigned) [Example 107.1] gave a dissociation constant (Kd) in assay [1] greater than 150 µM.
For `Cc1cc([C@H](C(=O)N2C[C@H](O)C[C@H]2C(=O)NCc2ccc(-c3scnc3C)cc2OCCNC(=O)c2ccc3c(c2)C(=O)OC32c3ccc(N(C)C)cc3Oc3cc(N(C)C)ccc32)C(C)C)on1` [VHL fluorescence polarization probe, (2S,4R)—N-(2-(2-(3′,6′-bis(dimethylamino)-3-oxo-3H-spiro[isobenzofuran-1,9′-xanthene]-5-carboxamido)ethoxy)-4-(4-methylthiazol-5-yl)benzyl)-4-hydroxy-1-((R)-3-methyl-2-(3-methylisoxazol-5-yl)butanoyl)pyrrolidine-2-carboxamide, reference compound], binding at VHL Elongin B/C complex (probe binding to VHL/Elongin B/C) was put at a Kd of 0.0182 µM.
